Test results: PMC5428354, “Screening of a natural compound library identifies emodin, a natural compound from Rheum palmatum Linn that inhibits DPP4” (PeerJ, 2017)
Like-named read-outs stand apart in the source and are kept apart here.

Target: DPP4 (Homo sapiens, UniProt P27487)
Assay: DPP4 activity assay (DPP4 inhibitor screening assay kit, Cayman);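 further: fluorescence read at excitation 360 nm and emission 460 nm after the enzyme reaction ran 30 min at 37 °C in a 96-well plate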
Format: biochemical
Parameters: purchased Cayman Chemical, Ann Arbor, MI, USA
Conditions: for remaining activity at 10 µM: 0.5 h
[1] = 10 µM, control mean 100.0, Figure 1A raw data, read-out: DPP4 activity in library screen, Exp 1
[2] = 10 µM, control mean 100.0, Figure 1A raw data, read-out: DPP4 activity in library screen, Exp 2
[3] = 10 µM, control mean 100.0, Figure 1A raw data, read-out: DPP4 activity in library screen, Exp 3
[4] = 10 µM, control mean 100.0, mean of Exp 1-3, read-out: DPP4 activity in library screen, Mean
[5] = 10 µM, control mean 100.0, mean of Exp 1-3
[6] = 10 µM, control mean 100.0, Figure 1A raw data

DPP4, sequence (P27487 whole entry): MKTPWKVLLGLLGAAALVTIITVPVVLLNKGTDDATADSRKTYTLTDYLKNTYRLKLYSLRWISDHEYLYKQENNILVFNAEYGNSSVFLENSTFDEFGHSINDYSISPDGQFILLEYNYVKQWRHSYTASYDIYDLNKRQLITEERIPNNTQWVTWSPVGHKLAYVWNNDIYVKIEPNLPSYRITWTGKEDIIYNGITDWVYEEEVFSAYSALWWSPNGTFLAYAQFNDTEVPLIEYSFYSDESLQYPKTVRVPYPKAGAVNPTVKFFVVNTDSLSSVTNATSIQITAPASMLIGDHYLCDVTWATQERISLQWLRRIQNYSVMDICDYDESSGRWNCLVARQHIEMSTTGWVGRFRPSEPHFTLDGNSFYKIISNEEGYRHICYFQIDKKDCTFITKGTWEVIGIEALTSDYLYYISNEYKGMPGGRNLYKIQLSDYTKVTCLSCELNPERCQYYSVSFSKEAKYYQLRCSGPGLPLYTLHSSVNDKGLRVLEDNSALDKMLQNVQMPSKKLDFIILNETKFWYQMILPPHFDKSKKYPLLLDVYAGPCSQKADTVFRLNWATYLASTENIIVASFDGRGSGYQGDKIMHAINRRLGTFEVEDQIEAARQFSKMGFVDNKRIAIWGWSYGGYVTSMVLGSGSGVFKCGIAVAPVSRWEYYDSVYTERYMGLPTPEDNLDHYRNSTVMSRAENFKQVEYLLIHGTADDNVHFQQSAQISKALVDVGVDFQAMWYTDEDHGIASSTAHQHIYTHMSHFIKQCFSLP

Row | Compound | remaining activity at 10 µM [1] [%] | remaining activity at 10 µM [2] [%] | remaining activity at 10 µM [3] [%] | remaining activity at 10 µM [4] [%] | further results
1 | O=c1cccc2n1C[C@@H]1CNC[C@H]2C1 [Cytisine] | – | – | – | – | remaining activity at 10 µM (read-out: DPP4 activity in library screen, Exp 1): 90.3%; remaining activity at 10 µM (read-out: DPP4 activity in library screen, Exp 2): 91%; remaining activity at 10 µM (read-out: DPP4 activity in library screen, Exp 3): 109%; remaining activity at 10 µM (read-out: DPP4 activity in library screen, Mean): 96.7%
2 | OC[C@@H](O)[C@@H](O)[C@H](O)[C@H](O)CO [D-Mannitol] | 96 | 95.6 | 83.5 | 91.7 | –
3 | C[C@H]1[C@@H](O)O[C@@H]2O[C@@]3(C)CC[C@H]4[C@H](C)CC[C@@H]1[C@@]24OO3 [Dihydroartemisinin (DHA), Dihydroartemisinin] | 97.1 | 91 | 88.2 | 92.1 | –
4 | O=C1c2c(O)cc(O)cc2O[C@H](c2cc(O)c(O)c(O)c2)[C@H]1O [Dihydromyricetin] | 101 | 88.8 | 72.1 | 87.3 | –
5 | C[C@@H]1CC[C@@]2(OC1)O[C@H]1C[C@H]3[C@@H]4CC=C5C[C@@H](O[C@@H]6O[C@H](CO)[C@@H](O[C@@H]7O[C@@H](C)[C@H](O)[C@@H](O)[C@H]7O)[C@H](O)[C@H]6O[C@@H]6O[C@@H](C)[C@H](O)[C@@H](O)[C@H]6O)CC[C@]5(C)[C@H]4CC[C@]3(C)[C@H]1[C@@H]2C [Dioscin] | 100 | 100 | 79.1 | 93.1 | –
6 | COc1ccc(-c2cc(=O)c3c(O)cc(O)cc3o2)cc1O [Diosmetin] | 77.2 | 77.5 | 77.6 | 77.4 | –
7 | COc1ccc(-c2cc(=O)c3c(O)cc(O[C@@H]4O[C@H](CO[C@@H]5O[C@@H](C)[C@H](O)[C@@H](O)[C@H]5O)[C@@H](O)[C@H](O)[C@H]4O)cc3o2)cc1O [Diosmin] | 66.8 | 69 | 74.6 | 70.1 | –
8 | CC1(C)[C@@H](O)CC[C@]2(C)[C@H]3C(=O)C=C4[C@@H]5C[C@@](C)(C(=O)O)CC[C@]5(C)CC[C@@]4(C)[C@]3(C)CC[C@@H]12 [Enoxolone] | 84.3 | 87 | 95.5 | 88.9 | –
9 | O=c1ccc2cc(O[C@@H]3O[C@H](CO)[C@@H](O)[C@H](O)[C@H]3O)c(O)cc2o1 [Esculin] | – | – | – | – | DPP4 activity in library screen, Mean [5]: auto-fluorescence
10 | COc1cc(/C=C/C(=O)O)ccc1O [Ferulic Acid] | – | – | – | – | DPP4 activity in library screen, Exp 1 [6]: 97.5; DPP4 activity in library screen, Exp 2 [6]: 83.7; DPP4 activity in library screen, Exp 3 [6]: 98; DPP4 activity in library screen, Mean [5]: 93.1
11 | O=c1c(O)c(-c2ccc(O)c(O)c2)oc2cc(O)ccc12 [Fisetin] | 72.3 | 74 | 51.8 | 66 | –
12 | COc1ccc(-c2coc3cc(O)ccc3c2=O)cc1 [Formononetin] | 102 | 85.5 | 108 | 98.7 | –
13 | OCc1ccc(O[C@@H]2O[C@H](CO)[C@@H](O)[C@H](O)[C@H]2O)cc1 [Gastrodin] | 91 | 91.5 | 98.6 | 93.7 | –
14 | CC1(C)[C@@H](O[C@H]2O[C@H](C(=O)O)[C@@H](O)[C@H](O)[C@H]2O[C@@H]2O[C@H](C(=O)O)[C@@H](O)[C@H](O)[C@H]2O)CC[C@]2(C)[C@H]3C(=O)C=C4[C@@H]5C[C@@](C)(C(=O)O)CC[C@]5(C)CC[C@@]4(C)[C@]3(C)CC[C@@H]12 [Glycyrrhizin (Glycyrrhizic Acid), Glycyrrhizin] | 137 | 78.9 | 65.2 | 93.8 | –
15 | Cc1cc2c(C(C)C)c(O)c(O)c(C=O)c2c(O)c1-c1c(C)cc2c(C(C)C)c(O)c(O)c(C=O)c2c1O [Gossypol] | 54.6 | 59.8 | 51.6 | 55.3 | –
16 | CN(C)Cc1c[nH]c2ccccc12 [Gramine] | 97.6 | 97.4 | 88.2 | 94.4 | –
17 | Nc1nc2c(ncn2[C@@H]2O[C@H](CO)[C@@H](O)[C@H]2O)c(=O)[nH]1 [Guanosine] | 104 | 102 | 90.2 | 98.5 | –
18 | Oc1cc2c(cc1O)[C@@H]1c3ccc(O)c(O)c3OC[C@]1(O)C2 [Hematoxylin] | 70.1 | 72 | 84.9 | 75.7 | –
19 | COc1ccc([C@@H]2CC(=O)c3c(O)cc(O)cc3O2)cc1O [Hesperetin] | 80.8 | 106 | 78.5 | 88.4 | –

Row | Compound | remaining activity at 10 µM [1] [%] | remaining activity at 10 µM [2] [%] | remaining activity at 10 µM [3] [%] | remaining activity at 10 µM [4] [%] | further results
20 | COc1ccc([C@@H]2CC(=O)c3c(O)cc(O[C@@H]4O[C@H](CO[C@@H]5O[C@@H](C)[C@H](O)[C@@H](O)[C@H]5O)[C@@H](O)[C@H](O)[C@H]4O)cc3O2)cc1O [Hesperidin] | – | – | – | – | DPP4 activity in library screen, Exp 1 [6]: 97.2; DPP4 activity in library screen, Exp 2 [6]: 95.1; DPP4 activity in library screen, Exp 3 [6]: 85.1; DPP4 activity in library screen, Mean [5]: 92.5
21 | C=CCc1ccc(O)c(-c2ccc(O)c(CC=C)c2)c1 [Honokiol] | 106 | 94.1 | 105 | 102 | –
22 | CN(C)CCc1ccc(O)cc1 [Hordenine] | 90.7 | 95.7 | 95.6 | 94 | –
23 | C[C@H](CCC(=O)O)[C@H]1CC[C@H]2[C@@H]3C[C@H](O)[C@@H]4C[C@H](O)CC[C@]4(C)[C@H]3CC[C@]12C [Hyodeoxycholic acid (HDCA), Hyodeoxycholic acid] | 96.6 | 94.7 | 96.2 | 95.8 | –
24 | O=c1[nH]cnc2nc[nH]c12 [Hypoxanthine] | 96.7 | 99.3 | 98.5 | 98.2 | –
25 | COc1ccc(-c2oc3c(CC=C(C)C)c(O[C@@H]4O[C@H](CO)[C@@H](O)[C@H](O)[C@H]4O)cc(O)c3c(=O)c2O[C@@H]2O[C@@H](C)[C@H](O)[C@@H](O)[C@H]2O)cc1 [Icariin] | 76 | 74.5 | 78.7 | 76.4 | –
26 | O=C1Nc2ccccc2/C1=C1/Nc2ccccc2C1=O [Indirubin] | 53.9 | 58.9 | 61.7 | 58.2 | –
27 | O=C(O)Cc1c[nH]c2ccccc12 [Indole-3-acetic acid] | 115 | 108 | 121 | 115 | –
28 | OCc1c[nH]c2ccccc12 [Indole-3-carbinol] | 103 | 92 | 88.7 | 94.6 | –
29 | O=c1[nH]cnc2c1ncn2[C@@H]1O[C@H](CO)[C@@H](O)[C@H]1O [Inosine] | 95.4 | 94.1 | 102 | 97.2 | –
30 | CC(C)Oc1ccc2c(=O)c(-c3ccccc3)coc2c1 [Ipriflavone (Osteofix), Ipriflavone] | 85.8 | 99.7 | 98 | 94.5 | –
31 | O=C(/C=C/c1ccc(O)cc1)c1ccc(O)cc1O [Isoliquiritigenin] | – | – | 31.6 | – | –
32 | O=c1c(O)c(-c2ccc(O)cc2)oc2cc(O)cc(O)c12 [Kaempferol] | 52 | 72.5 | 70.4 | 65 | –
33 | c1coc(CNc2ncnc3[nH]cnc23)c1 [Kinetin] | 97.6 | 93.8 | 93 | 94.8 | –
34 | C[C@@H]1O[C@@H](O)[C@H](O)[C@H](O)[C@H]1O.O [L-(+)-Rhamnose Monohydrate] | – | – | – | – | DPP4 activity in library screen, Exp 1 [6]: 92.8; DPP4 activity in library screen, Exp 2 [6]: 91.1; DPP4 activity in library screen, Exp 3 [6]: 93; DPP4 activity in library screen, Mean [5]: 92.3
35 | Br.CCN1C[C@]2(OC(=O)c3ccccc3NC(C)=O)CC[C@H](OC)[C@]34C1[C@H](C[C@H]23)[C@@]1(O)C[C@H](OC)[C@H]2C[C@@H]4[C@]1(O)[C@H]2OC [Lappaconite HBr] | – | – | – | – | DPP4 activity in library screen, Exp 1 [6]: 95.4; DPP4 activity in library screen, Exp 2 [6]: 80.2; DPP4 activity in library screen, Exp 3 [6]: 92.6; DPP4 activity in library screen, Mean [5]: 89.4
36 | CC1(C)O[C@H]2CC(=O)OC[C@]23[C@H]2CC[C@@]4(C)[C@H](c5ccoc5)OC(=O)[C@H]5O[C@]54[C@]2(C)C(=O)C[C@@H]13 [Limonin] | 104 | 106 | 91.4 | 101 | –
37 | O=c1cc(-c2ccc(O)c(O)c2)oc2cc(O)cc(O)c12 [Luteolin] | 61.4 | 68.3 | 70 | 66.6 | –
38 | C=CCc1ccc(O)c(-c2cc(CC=C)ccc2O)c1 [Magnolol] | 97.6 | 108 | 83.9 | 96.4 | –
